The target of this assay is NLRP3 (Homo sapiens, UniProt Q96P20). Briefly: THP-1 cells pyroptosis assay. Type of assay: cell-based. The arrangement: Seed THP-1 cells (25,000 cells/well) containing 1.0 μg/ml LPS; host or cells: THP-1. The note with it: LPS 1.0 μg/ml, nigericin 5 μM, resazurin readout, 10 μM top dose (Example 2: top dose of 30 μM). The essentials:
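Pyroptosis induced by 5 μM nigericin (1 h) in LPS-primed (1 μg/ml) THP-1 cells, 25,000/well in serum-free RPMI, after 3 h compound pre-treatment (8 points, 10 μM top unless stated). Surviving cells measured with 100 μM resazurin, Ex 560/Em 590; IC50 via variable-slope 4-parameter regression.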
On the technique in general: Alamar Blue is a resazurin reagent that responds to reducing activity.

As usually defined, the IC50 is the point on the concentration scale where inhibition reaches its midpoint. A higher IC50 goes with weaker potency in that assay.

Where only a bound is given, the exact number is not on record here.

NLRP3, sequence (Q96P20 whole entry): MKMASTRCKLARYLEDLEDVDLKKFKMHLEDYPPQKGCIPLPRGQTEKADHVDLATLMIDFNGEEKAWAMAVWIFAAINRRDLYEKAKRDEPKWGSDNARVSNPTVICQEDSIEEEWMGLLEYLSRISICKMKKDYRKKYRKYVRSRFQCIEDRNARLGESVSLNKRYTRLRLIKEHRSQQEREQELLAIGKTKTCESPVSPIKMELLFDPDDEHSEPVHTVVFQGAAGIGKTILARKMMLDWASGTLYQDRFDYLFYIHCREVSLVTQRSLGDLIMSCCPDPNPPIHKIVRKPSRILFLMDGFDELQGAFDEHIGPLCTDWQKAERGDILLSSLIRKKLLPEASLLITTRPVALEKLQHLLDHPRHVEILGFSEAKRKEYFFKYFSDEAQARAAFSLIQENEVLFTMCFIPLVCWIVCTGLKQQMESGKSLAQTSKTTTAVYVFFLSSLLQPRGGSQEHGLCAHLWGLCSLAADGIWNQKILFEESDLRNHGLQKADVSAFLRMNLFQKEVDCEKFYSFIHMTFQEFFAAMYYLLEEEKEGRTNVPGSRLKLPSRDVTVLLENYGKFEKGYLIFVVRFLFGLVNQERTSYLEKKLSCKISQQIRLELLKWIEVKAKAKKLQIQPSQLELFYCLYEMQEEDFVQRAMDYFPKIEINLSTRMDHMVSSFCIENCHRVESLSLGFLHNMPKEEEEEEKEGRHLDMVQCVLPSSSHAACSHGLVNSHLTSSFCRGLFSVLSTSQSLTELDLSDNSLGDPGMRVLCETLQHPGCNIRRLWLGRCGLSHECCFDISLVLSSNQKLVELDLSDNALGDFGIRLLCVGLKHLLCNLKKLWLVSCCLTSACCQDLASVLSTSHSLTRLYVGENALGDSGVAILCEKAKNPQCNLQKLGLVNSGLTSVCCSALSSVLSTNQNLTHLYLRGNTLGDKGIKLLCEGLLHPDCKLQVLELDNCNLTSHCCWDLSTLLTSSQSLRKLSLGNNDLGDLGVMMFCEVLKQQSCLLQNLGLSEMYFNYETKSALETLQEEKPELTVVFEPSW

On to `CS(=O)(=O)c1nnc(Nc2c(-c3ccnc(OCc4ccccc4)c3)ccc3c2CCC3)[nH]1` [Example 234, N-(5-(2-(benzyloxy)pyridin-4-yl)-2,3-dihydro-1H-inden-4-yl)-5-(methylsulfonyl)-4H-1,2,4-triazol-3-amine], for which the IC50 was at most 5 µM.

Compound `CNC(=O)C1CCN(S(=O)(=O)c2nnc(Nc3c4c(cc5c3CCC5)CCC4)[nH]2)C1` (stereo not shown) [Example 140, 1-((5-((1,2,3,5,6,7-hexahydro-s-indacen-4-yl)amino)-4H-1,2,4-triazol-3-yl)sulfonyl)-N-methylpyrrolidine-3-carboxamide] registered a half-maximal inhibitory concentration (IC50) of at most 5 µM.

In turn, `CN1CCN(S(=O)(=O)c2nnc(Nc3c4c(cc5c3CCC5)CCC4)[nH]2)CC1` [Example 100, N-(1,2,3,5,6,7-hexahydro-s-indacen-4-yl)-5-((4-methylpiperazin-1-yl)sulfonyl)-4H-1,2,4-triazol-3-amine] gave an IC50 of at most 5 µM.

With `CC(C)(O)c1cccc(S(=O)(=O)c2nnc(Nc3c4c(cc5c3CCC5)CCC4)[nH]2)c1` [Example 172, 2-(3-((5-((1,2,3,5,6,7-hexahydro-s-indacen-4-yl)amino)-4H-1,2,4-triazol-3-yl)sulfonyl)phenyl)propan-2-ol], the IC50 is at most 1 µM.

Compound `COCCNS(=O)(=O)c1nnc(Nc2c3c(cc4c2CCC4)CCC3)[nH]1` [Example 83, 5-((1,2,3,5,6,7-hexahydro-s-indacen-4-yl)amino)-N-(2-methoxyethyl)-4H-1,2,4-triazole-3-sulfonamide] registered a half-inhibitory concentration (IC50) of at most 10 µM.

In turn, `O=C1CC2(CN1)CN(S(=O)(=O)c1nnc(Nc3c4c(cc5c3CCC5)CCC4)[nH]1)C2` [Example 332, 2-((5-((1,2,3,5,6,7-hexahydro-s-indacen-4-yl)amino)-4H-1,2,4-triazol-3-yl)sulfonyl)-2,6-diazaspiro[3.4]octan-7-one] came in with an IC50 of at most 10 µM.

Compound `CN(C)C1CCN(S(=O)(=O)c2nnc(Nc3c4c(c(C#N)c5c3CCC5)CCC4)[nH]2)CC1` [Example 223, 8-((5-((4-(dimethylamino)piperidin-1-yl)sulfonyl)-4H-1,2,4-triazol-3-yl)amino)-1,2,3,5,6,7-hexahydro-s-indacene-4-carbonitrile] displayed an IC50 of at most 5 µM.

`N#Cc1cccc(S(=O)(=O)c2nnc(Nc3c4c(cc5c3CCC5)CCC4)[nH]2)c1` [Example 188, 3-((5-((1,2,3,5,6,7-hexahydro-s-indacen-4-yl)amino)-4H-1,2,4-triazol-3-yl)sulfonyl)benzonitrile] came in with an IC50 of at most 5 µM.

The compound `COc1cc(-c2ccc3c(c2Nc2nnc(S(=O)(=O)c4ccccc4)[nH]2)CCC3)ccn1` [Example 372, N-(5-(2-methoxypyridin-4-yl)-2,3-dihydro-1H-inden-4-yl)-5-(phenylsulfonyl)-1H-1,2,4-triazol-3-amine] showed an IC50 of at most 5 µM.

In turn, `CN1CCC(Oc2cc(-c3ccc4c(c3Nc3nnc(S(=O)(=O)N5CCC(N(C)C)CC5)[nH]3)CCC4)ccn2)CC1` [Example 321, N,N-dimethyl-1-((5-((5-(2-((1-methylpiperidin-4-yl)oxy)pyridin-4-yl)-2,3-dihydro-1H-inden-4-yl)amino)-4H-1,2,4-triazol-3-yl)sulfonyl)piperidin-4-amine] showed an IC50 of at most 5 µM.

Take `CC(=O)c1c2c(c(Nc3nnc(S(=O)(=O)N4CCC(N(C)C)CC4)[nH]3)c3c1CCC3)CCC2` [Example 232, 1-(8-((5-((4-(dimethylamino)piperidin-1-yl)sulfonyl)-4H-1,2,4-triazol-3-yl)amino)-1,2,3,5,6,7-hexahydro-s-indacen-4-yl)ethan-1-one]: the IC50 was at most 1 µM.

`CC(O)Cn1cc(S(=O)(=O)c2nnc(Nc3c4c(cc5c3CCC5)CCC4)[nH]2)cn1` (stereo not shown) [Example 353, 1-(4-((5-((1,2,3,5,6,7-hexahydro-s-indacen-4-yl)amino)-4H-1,2,4-triazol-3-yl)sulfonyl)-1H-pyrazol-1-yl)propan-2-ol] displayed an IC50 of at most 5 µM.

`O=S(=O)(c1cccc(F)c1)c1nnc(Nc2c3c(cc4c2CCC4)CCC3)[nH]1` [Example 178, 5-((3-fluorophenyl)sulfonyl)-N-(1,2,3,5,6,7-hexahydro-s-indacen-4-yl)-4H-1,2,4-triazol-3-amine]: the IC50 is at most 5 µM.

As to `CN1CCC2CN(S(=O)(=O)c3nnc(Nc4c5c(cc6c4CCC6)CCC5)[nH]3)CC21` (stereo not shown) [Example 101, N-(1,2,3,5,6,7-hexahydro-s-indacen-4-yl)-5-((1-methylhexahydropyrrolo[3,4-b]pyrrol-5 (1H)-yl)sulfonyl)-4H-1,2,4-triazol-3-amine], the IC50 is at most 5 µM.

In turn, `COc1cc(-c2ccc3c(c2Nc2nnc(S(=O)(=O)c4ccc(C(C)(C)O)cc4)[nH]2)CCC3)ccn1` [Example 324, 2-(4-((5-((5-(2-methoxypyridin-4-yl)-2,3-dihydro-1H-inden-4-yl)amino)-4H-1,2,4-triazol-3-yl)sulfonyl)phenyl)propan-2-ol] yielded a half-inhibitory concentration (IC50) of at most 0.5 µM.

In turn, `O=S(=O)(c1nnc(Nc2c3c(cc4c2CCC4)CCC3)[nH]1)N1CCC(N2CCOCC2)C1` (stereo not shown) [Example 127, N-(1,2,3,5,6,7-hexahydro-s-indacen-4-yl)-5-((3-morpholinopyrrolidin-1-yl)sulfonyl)-4H-1,2,4-triazol-3-amine] showed an IC50 of at most 5 µM.

Consider `NS(=O)(=O)c1cccc(S(=O)(=O)c2nnc(Nc3c4c(cc5c3CCC5)CCC4)[nH]2)c1` [Example 326, 3-((5-((1,2,3,5,6,7-hexahydro-s-indacen-4-yl)amino)-4H-1,2,4-triazol-3-yl)sulfonyl)benzenesulfonamide], for which the IC50 is at most 5 µM.

For `CN1CCCC(COc2cc(-c3ccc4c(c3Nc3nnc(S(C)(=O)=O)[nH]3)CCC4)ccn2)C1` (stereo not shown) [Example 359, N-(5-(2-((1-methylpiperidin-3-yl)methoxy)pyridin-4-yl)-2,3-dihydro-1H-inden-4-yl)-5-(methylsulfonyl)-4H-1,2,4-triazol-3-amine], the IC50 was at most 5 µM.

As for `O=S(=O)(Nc1ccccc1)c1nnc(Nc2c3c(cc4c2CCC4)CCC3)[nH]1` [Example 85, 5-((1,2,3,5,6,7-hexahydro-s-indacen-4-yl)amino)-N-phenyl-4H-1,2,4-triazole-3-sulfonamide], the half-inhibitory concentration (IC50) is at most 10 µM.

As for `O=S(=O)(c1nnc(Nc2c3c(cc4c2CCC4)CCC3)[nH]1)N1CCC2(CCNC2)CC1` [Example 266, 5-((2,8-diazaspiro[4.5]decan-8-yl)sulfonyl)-N-(1,2,3,5,6,7-hexahydro-s-indacen-4-yl)-4H-1,2,4-triazol-3-amine], the IC50 was at most 5 µM.

Take `O=S(=O)(c1cnn(C2CC2)c1)c1nnc(Nc2c3c(cc4c2CCC4)CCC3)[nH]1` [Example 193, 3-((1-cyclopropyl-H-pyrazol-4-yl)sulfonyl)-N-(1,2,3,5,6,7-hexahydro-s-indacen-4-yl)-1H-1,2,4-triazol-5-amine]: the IC50 is at most 5 µM.

`COc1ccc(S(=O)(=O)c2nnc(Nc3c4c(cc5c3CCC5)CCC4)[nH]2)cc1` [Example 183, N-(1,2,3,5,6,7-hexahydro-s-indacen-4-yl)-5-((4-methoxyphenyl)sulfonyl)-4H-1,2,4-triazol-3-amine] showed an IC50 of at most 5 µM.

In turn, `O=S(=O)(c1ccc(F)cc1)c1nnc(Nc2c3c(cc4c2CCC4)CCC3)[nH]1` [Example 181, 5-((4-fluorophenyl)sulfonyl)-N-(1,2,3,5,6,7-hexahydro-s-indacen-4-yl)-4H-1,2,4-triazol-3-amine] registered an IC50 of at most 5 µM.

`O=S(=O)(c1nnc(Nc2c3c(cc4c2CCC4)CCC3)[nH]1)C1CCCC(N2CCCC2)C1` (stereo not shown) [Example 194, N-(1,2,3,5,6,7-hexahydro-s-indacen-4-yl)-3-((3-(pyrrolidin-1-yl)cyclohexyl)sulfonyl)-1H-1,2,4-triazol-5-amine] registered an IC50 of at most 10 µM.

Compound `CN1CCN(C2CCN(S(=O)(=O)c3nnc(Nc4c5c(cc6c4CCC6)CCC5)[nH]3)CC2)CC1` [Example 135, N-(1,2,3,5,6,7-hexahydro-s-indacen-4-yl)-5-((4-(4-methylpiperazin-1-yl)piperidin-1-yl)sulfonyl)-4H-1,2,4-triazol-3-amine] registered an IC50 of at most 5 µM.

`COc1cc(-c2ccc3c(c2Cc2nnc(S(=O)(=O)N4CCC(CN(C)C)C4)[nH]2)CCC3)ccn1` (stereo not shown) [Example 160, 1-(1-((5-((5-(2-methoxypyridin-4-yl)-2,3-dihydro-1H-inden-4-yl)-methyl)-4H-1,2,4-triazol-3-yl)sulfonyl)pyrrolidin-3-yl)-N,N-dimethylmethanamine] came in with an IC50 of at most 5 µM.

In turn, `CC(C)n1cc(S(=O)(=O)c2nnc(Nc3c4c(cc5c3CCC5)CCC4)[nH]2)cn1` [Example 338, N-(1,2,3,5,6,7-hexahydro-s-indacen-4-yl)-5-((1-isopropyl-1H-pyrazol-4-yl)sulfonyl)-4H-1,2,4-triazol-3-amine] returned an IC50 of at most 5 µM.

Compound `O=S1(=O)CCN(S(=O)(=O)c2nnc(Nc3c4c(cc5c3CCC5)CCC4)[nH]2)CC1` [Example 298, 4-((5-((1,2,3,5,6,7-hexahydro-s-indacen-4-yl)amino)-4H-1,2,4-triazol-3-yl)sulfonyl)thiomorpholine 1,1-dioxide] registered an IC50 of at most 10 µM.

Take `CN1CCC(NS(=O)(=O)c2nnc(Nc3c4c(cc5c3CCC5)CCC4)[nH]2)CC1` [Example 102, 5-((1,2,3,5,6,7-hexahydro-s-indacen-4-yl)amino)-N-(1-methylpiperidin-4-yl)-4H-1,2,4-triazole-3-sulfonamide]: the IC50 is at most 10 µM.

In turn, `O=S(=O)(c1cccnc1)c1nnc(Nc2c3c(cc4c2CCC4)CCC3)[nH]1` [Example 177, N-(1,2,3,5,6,7-hexahydro-s-indacen-4-yl)-5-(pyridin-3-ylsulfonyl)-4H-1,2,4-triazol-3-amine] displayed an IC50 of at most 5 µM.

In turn, `CC(C)c1cc(F)cc(-c2ccncc2)c1Nc1nnc(S(=O)(=O)c2ccccc2)[nH]1` [Example 191, N-(4-fluoro-2-isopropyl-6-(pyridin-4-yl)phenyl)-5-(phenylsulfonyl)-4H-1,2,4-triazol-3-amine] showed an IC50 of at most 10 µM.

(Values after US20210261512A1, “NOVEL COMPOUNDS” (INFLAZOME LIMITED, priority 2018, published 2021).)
